Experiment [1] deals with A549. Nature of the experiment: Inhibitory concentration against growth of A549 lung carcinoma cell. The settings on record: Homo sapiens. Format: functional, cell-based.
Experiment [2] deals with HeLa. The experiment can be described thus: Inhibitory concentration against HeLa cell colony formation; Range is 15-20 uM. Format: functional, cell-based. The note with it: Homo sapiens.
Experiment [3] concerns the target Mitogen-activated protein kinase 1 (Homo sapiens, UniProt P28482). The experiment can be described thus: Dissociation constant for ERK2 kinase.

We go through three compounds from ChEMBL document CHEMBL1145156, “Identification of novel extracellular signal-regulated kinase docking domain inhibitors” (J Med Chem, 2005).

Chain of Mitogen-activated protein kinase 1 (P28482 whole entry): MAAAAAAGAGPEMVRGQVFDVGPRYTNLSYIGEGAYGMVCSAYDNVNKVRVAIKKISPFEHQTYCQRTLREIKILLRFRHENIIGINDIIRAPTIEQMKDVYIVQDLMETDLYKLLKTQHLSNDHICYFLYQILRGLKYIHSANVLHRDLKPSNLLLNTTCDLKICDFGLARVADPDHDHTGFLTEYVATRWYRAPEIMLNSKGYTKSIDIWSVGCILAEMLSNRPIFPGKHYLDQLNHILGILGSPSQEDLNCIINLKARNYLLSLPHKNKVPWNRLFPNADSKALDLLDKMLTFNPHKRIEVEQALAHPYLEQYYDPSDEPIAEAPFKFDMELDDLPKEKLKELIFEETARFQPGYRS

As a reminder, the IC50 is the concentration that inhibits the measured activity by half. Turning to `O=C(CCN1CCN(C/C=C/c2ccccc2)CC1)Nc1ccc(Cl)cc1`, the figures for the concentration for half-maximal inhibition (IC50) in experiment [1] and in experiment [2] were 15 µM and 20 µM, respectively.

Broadly, the Kd is the concentration at which binding is half-saturated. A low value points to tighter binding. As to `CCOc1ccc(/C=C2\SC(=O)N(CCN)C2=O)cc1`, the IC50 was 25 µM in experiment [1] and 20 µM in experiment [2]. In experiment [3], this compound displayed a Kd of 5 µM.

Consider `O=C(CSc1nc2ccccc2o1)Nc1ccc(-n2cnnn2)cc1`, for which binding in experiment [3] was characterised by a dissociation constant (Kd) of 5 µM. That is a single-digit micromolar value.
